SMILES strings stand for the structures.

T1 sequence (P22460 whole entry, canonical isoform): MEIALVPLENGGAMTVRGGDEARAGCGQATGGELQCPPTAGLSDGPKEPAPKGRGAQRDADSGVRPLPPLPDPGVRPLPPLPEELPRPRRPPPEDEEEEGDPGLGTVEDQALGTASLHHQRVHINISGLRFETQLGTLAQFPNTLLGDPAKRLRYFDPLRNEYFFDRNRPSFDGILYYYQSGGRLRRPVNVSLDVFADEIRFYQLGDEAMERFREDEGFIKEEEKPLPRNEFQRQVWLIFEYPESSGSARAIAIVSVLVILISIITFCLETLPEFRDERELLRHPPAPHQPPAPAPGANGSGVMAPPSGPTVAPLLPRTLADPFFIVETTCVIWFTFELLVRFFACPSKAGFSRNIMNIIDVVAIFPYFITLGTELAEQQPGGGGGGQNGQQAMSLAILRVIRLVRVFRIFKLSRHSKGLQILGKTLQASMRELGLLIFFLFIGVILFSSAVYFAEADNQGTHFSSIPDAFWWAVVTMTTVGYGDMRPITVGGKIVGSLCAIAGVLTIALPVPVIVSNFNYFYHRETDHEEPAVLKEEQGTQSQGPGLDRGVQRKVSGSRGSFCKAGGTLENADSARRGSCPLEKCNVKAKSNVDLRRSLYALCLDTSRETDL

The test has as its target T1, human isoform of the Kv1.5 channels (HEK293 cells, stably transfected) (Homo sapiens, UniProt P22460).
T1 construct: expressed in transfected cells; host or cells: HEK293
Briefly: FLIPR thallium ion flux assay on Kv1.5 potassium channel (FLIPR Potassium Ion Channel Assay Kit). Format: cell-based. The settings on record: 10 μM compound, 15 min at 37° C; HEK293-hKv1.5; thallium fluorescence 30 secs after depolarising solution; normalised with 10 μM DPO. The protocol: The pharmacological assessment of the compounds on the Kv1.5 potassium channel was performed in a 96-well plate in FLIPR technology by thallium ion measurement.
The HEK293 cells, stably transfected with the human isoform of the Kv1.5 channels, are seeded 24 h before experimentation in 96-well plates (15 10^6 cells/plate, 200 μl/well) polylysinated in the following culture medium: DMEM, 10% SVF, Penicillin/Streptomycin, G418 as the selection antibiotic.
The experimentation in FLIPR is performed using the “FLIPR Potassium Ion Channel Assay Kit) as indicated by the manufacturer (Molecular Devices).
Briefly, the culture medium is replaced by the solution containing the thallium marker for 90 min at 37° C. Following this step, the compounds to be tested are added to a final concentration of 10 μM in the well for 15 min at 37° C. The basic fluorescence is subsequently read for 60 secs. The addition of a depolarising medium (20 mM of potassium and 3 mM of final thallium), opens the potassium channels and induces an increase in the fluorescence of the fluorophore thallium corresponding to an influx of thallium ions through the hKv1.5 channels. The measurement is performed 30 secs after injection of the depolarising solution. Application of 10 μM of DPO (Tocris, Kv1.5 channel blocker) allows normalisation of the fluorescence.
Consider `Cc1ccc(S(=O)(=O)Nc2cccc(-c3cnn(C(C)c4ccccc4)c(=O)c3-c3cccc(NS(=O)(=O)c4ccc(C)cc4)c3)c2)cc1` (stereo not shown) [Example 7, N,N′-(3,3′-(6-oxo-1-(1-phenylethyl)-1,6-dihydropyridazine-4,5-diyl)bis(3,1-phenylene))bis(4-methylbenzenesulfonamide)], for which 10 µM produced 54.9% inhibition.
The result for `C[C@H](c1ccccc1)n1ncc(-c2ccc(O)cc2)c(-c2ccc(O)cc2)c1=O` [Example 3, 4,5-Bis-(4-hydroxy-phenyl)-2-((R)-1-phenyl-ethyl)-2H-pyridazin-3-one] reads 43.3%.
For the compound `C[C@@H](c1ccccc1)n1ncc(-c2ccc(O)cc2)c(-c2ccc(O)cc2)c1=O` [Example 2, 4,5-Bis-(4-hydroxy-phenyl)-2-((S)-1-phenyl-ethyl)-2H-pyridazin-3-one], the inhibition (usually the drop in the measured response relative to a control, in per cent) at 10 µM came out at 100%.
The compound `CC1=C(C(=O)N2CCC[C@H]2c2ccc(F)cc2)[C@@H](c2ccc(Cl)c(Cl)c2)n2nccc2N1` [BMS394136, reference compound] registered an inhibition at 10 µM of 99.6%.
As to `COc1ccc(-c2c(-c3ccccc3C#N)cnn(C(C)c3ccccc3)c2=O)cc1` (stereo not shown) [Example 9, 2-[5-(4-Methoxy-phenyl)-6-oxo-1-(1-phenyl-ethyl)-1,6-dihydro-pyridazin-4-yl]-benzonitrile], the inhibition at 10 µM was found to be 60.1%.
For `COc1ccc(-c2cnn(C(C)c3ccccc3)c(=O)c2-c2ccc(OC)cc2)cc1` (stereo not shown) [Example 6, 4,5-Bis-(4-methoxy-phenyl)-2-(1-phenyl-ethyl)-2H-pyridazin-3-one], testing at 10 µM gave an inhibition of 94.2%.
The result for `CC(c1ccccc1)n1ncc(-c2cccc(C#N)c2)c(-c2cccc(C#N)c2)c1=O` (stereo not shown) [Example 5, 3,3′-(6-oxo-1-(1-phenylethyl)-1,6-dihydropyridazine-4,5-diyl) dibenzonitrile] reads 93.6%; that for `CC(c1ccccc1)n1ncc(-c2ccc(O)cc2)c(-c2ccc(O)cc2)c1=O` (stereo not shown) [Example 1, 4,5-Bis-(4-hydroxy-phenyl)-2-(1-phenyl-ethyl)-2H-pyridazin-3-one], 100%; that for `CC(c1ccccc1)n1ncc(-c2ccccc2C#N)c(-c2ccccc2C#N)c1=O` (stereo not shown) [Example 4, 2,2′-(6-oxo-1-(1-phenylethyl)-1,6-dihydropyridazine-4,5-diyl)dibenzonitrile], 54.9%.
Next, `COc1ccc(-c2c(-c3cccc(C#N)c3)cnn(C(C)c3ccccc3)c2=O)cc1` (stereo not shown) [Example 8, 3-(5-(4-methoxyphenyl)-6-oxo-1-(1-phenylethyl)-1,6-dihydropyridazin-4-yl)benzonitrile]: 88%.

Source of the values: patent US8993569B2, “Diarylpyridazinone derivatives, preparation thereof, and use thereof for the treatment of humans” (Pierre Fabre Medicament, priority 2010, dated 2015).
